{"source": "patent US6740517B2", "about": "“Incubation method for obtaining solid culture of Zang Zhi, solid culture obtained therefrom, processed products and use thereof” (priority 2001, dated 2004)", "origin": "cited, not measured here", "key": {"[1]": {"test_system": "lymphoma cells of a p-388 mouse"}, "[2]": {"test_system": "mouse with the acute hepatitis induced by CCl4"}}, "data": [{"compound": "C=C(CC[C@@H](C)[C@H]1CC[C@H]2C3=C(C(=O)C[C@]12C)[C@@]1(C)CCC(=O)[C@@H](C)[C@@H]1CC3=O)C(C)C(=O)O", "note": "(stereo partly drawn) [Zhankuic acid A]", "values": [{"measurement": "inhibition to the lymphoma cells of a p-388 mouse", "setting": "[1]", "value": "conspicuous inhibition"}, {"measurement": "inhibition to agglutination of blood platelets", "setting": "blood platelets", "value": "conspicuous inhibition"}]}, {"compound": "3,11-dioxo-8,23-dien-26-oic acid", "values": [{"measurement": "GPT in the blood", "setting": "[2]", "value": "reduce GPT"}]}]}
